In patent publication US9302999B2, “Substituted triazoles as herbicides” (E. I. DU PONT DE NEMOURS AND COMPANY, priority 2012, dated 2016):

Assays:
Type in all cases: in vivo
[1] = test system: foxtail, giant (giant foxtail, Setaria faberii); assay: Test A pre-/postemergence: foxtail, giant; conditions: for Foxtail, Giant plant response rating: Postemergence; for Plant response rating, Foxtail, Giant: Preemergence
Procedure, shortened: (§1)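 Soil medium was loam blended with sand; treatments pre- and postemergence were applied concurrently, postemergence at one- to two-leaf stage. Approximately ten days in greenhouse preceded visual comparison with untreated controls, scored 0 (no effect) to 100 (complete control).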

[2] = test system: morningglory (Ipomoea spp.); assay: Test A pre-/postemergence: morningglory
Procedure, shortened: as §1

corn (Zea mays) = assay: Test A pre-/postemergence: corn; conditions: for Corn plant response rating: Postemergence; for Plant response rating, Corn: Preemergence
Procedure, shortened: as §1

[3] = test system: sedge, umbrella (small-flower umbrella sedge Cyperus difformis); assay: Test B flooded paddy: sedge, umbrella; conditions: Flood; 250 g ai/ha; applied to paddy water at 2-leaf stage; visually evaluated after 13 to 15 days
Procedure, shortened: (§2)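 Response scored visually, 0–100 relative to controls, 13–15 days after the compound was applied into paddy water; plants were at the 2-leaf stage in pots kept flooded to 3 cm.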

[4] = test system: ducksalad (Heteranthera limosa); assay: Test B flooded paddy: ducksalad; conditions: Flood; 250 g ai/ha; applied to paddy water at 2-leaf stage; visually evaluated after 13 to 15 days
Procedure, shortened: as §2

[5] = test system: ryegrass, Italian (Italian ryegrass, Lolium multiflorum); assay: Test C pre-/postemergence: ryegrass, Italian
Procedure, shortened: (§3)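 Preemergence on seeds in loam/sand, postemergence on 2–18 cm (1–4-leaf) plants in peat-based medium; compounds in non-phytotoxic solvent with surfactant. After 13–15 days in greenhouse, visual rating versus controls, 0 (no effect) to 100 (complete control).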

[6] = test system: johnsongrass (Sorghum halepense); assay: Test C pre-/postemergence: johnsongrass
Procedure, shortened: as §3

kochia (Kochia scoparia) = assay: Test C pre-/postemergence: kochia
Procedure, shortened: as §3

[7] = test system: ragweed (common ragweed, Ambrosia elation); assay: Test C pre-/postemergence: ragweed
Procedure, shortened: as §3

soybean (Glycine max) = assay: Test C pre-/postemergence: soybean
Procedure, shortened: as §3

[8] = test system: chickweed (common chickweed, Stellaria media); assay: Test C postemergence: chickweed
Procedure, shortened: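 Pot-grown plants in peat/vermiculite medium sprayed postemergence at 2–18 cm height (1- to 4-leaf stage). Kept in greenhouse 13 to 15 days, then visually rated against untreated controls on a 0–100 scale (0 = no effect, 100 = complete control).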

[9] = 125 g ai/ha, 0 to 100 scale, 0 is no effect, 100 is complete control
[10] = 500 g ai/ha, visual rating on 0 to 100 scale (0 no effect, 100 complete control), approximately ten days
[11] = 125 g ai/ha, 0 to 100 scale where 0 is no effect and 100 is complete control
[12] = 500 g ai/ha, 0 to 100 scale (0 no effect, 100 complete control)
[13] = Postemergence, 125 g ai/ha, 0 to 100 scale, 0 is no effect, 100 is complete control
[14] = Postemergence, 500 g ai/ha, visual rating on 0 to 100 scale (0 no effect, 100 complete control), approximately ten days
[15] = Preemergence, 31 g ai/ha, scale of 0 to 100, 0 is no effect, 100 is complete control
[16] = Preemergence, 62 g ai/ha, scale of 0 to 100, 0 is no effect, 100 is complete control
[17] = Preemergence, 125 g ai/ha, scale 0 to 100, 0 no effect, 100 complete control
[18] = Preemergence, 250 g ai/ha, scale 0 to 100, 0 no effect, 100 complete control
[19] = 125 g ai/ha, 0 to 100 scale (0 no effect, 100 complete control)
[20] = 500 g ai/ha, 0 to 100 scale, 0 is no effect, 100 is complete control
[21] = Postemergence, 31 g ai/ha, scale 0 to 100 (0 no effect, 100 complete control)
[22] = Postemergence, 62 g ai/ha, scale 0 to 100 (0 no effect, 100 complete control)
[23] = Postemergence, 125 g ai/ha, scale 0 to 100, 0 no effect, 100 complete control
[24] = Postemergence, 250 g ai/ha, scale 0 to 100

Cc1nn(-c2ccc(F)cc2F)nc1Oc1ccnc(C(F)(F)F)c1 [Compound 146]
Foxtail, Giant plant response rating [1, 9]: 80
Foxtail, Giant plant response rating [1, 10]: 90
Plant response rating, Foxtail, Giant [1, 11]: 100
Plant response rating, Foxtail, Giant [1, 12]: 100
Plant response rating, Morningglory [2, 13]: 90
Morningglory plant response rating [2, 14]: 90
Plant response rating, Morningglory ([2]; Preemergence, 125 g ai/ha, 0 to 100 scale where 0 is no effect and 100 is complete control): 10
Plant response rating, Morningglory ([2]; Preemergence, 500 g ai/ha, 0 to 100 scale (0 no effect, 100 complete control)): 60
Corn plant response rating (corn (Zea mays); [9]): 20
Corn plant response rating (corn (Zea mays); [10]): 80
Plant response rating, Corn (corn (Zea mays); [11]): 0
Plant response rating, Corn (corn (Zea mays); [12]): 10
Plant response rating, Sedge, Umbrella (0 to 100 scale, 0 is no effect, 100 is complete control) [3]: 80
Plant response rating, Ducksalad (0 to 100 scale, 0 is no effect, 100 is complete control) [4]: 60
Plant response rating, Ryegrass, Italian [5, 15]: 0
Plant response rating, Ryegrass, Italian [5, 16]: 30
Plant response rating, Ryegrass, Italian [5, 17]: 55
Plant response rating, Ryegrass, Italian [5, 18]: 90
Plant response rating, Johnsongrass [6, 15]: 5
Plant response rating, Johnsongrass [6, 16]: 75
Plant response rating, Johnsongrass [6, 17]: 98
Plant response rating, Johnsongrass [6, 18]: 100
Plant response rating, Kochia (kochia (Kochia scoparia); [15]): 30
Plant response rating, Kochia (kochia (Kochia scoparia); [16]): 55
Plant response rating, Kochia (kochia (Kochia scoparia); [17]): 85
Plant response rating, Kochia (kochia (Kochia scoparia); [18]): 85
Plant response rating, Ragweed [7, 15]: 0
Plant response rating, Ragweed [7, 16]: 0
Plant response rating, Ragweed [7, 17]: 45
Plant response rating, Ragweed [7, 18]: 45
Plant response rating, Soybean (soybean (Glycine max); [15]): 10
Plant response rating, Soybean (soybean (Glycine max); [16]): 15
Plant response rating, Soybean (soybean (Glycine max); [18]): 40

FC(F)Oc1nn(-c2ccc(C(F)(F)F)cc2)nc1Cc1ccnc(C(F)(F)F)c1 [Compound 26]
Foxtail, Giant plant response rating [1, 9]: 90
Foxtail, Giant plant response rating [1, 10]: 90
Plant response rating, Foxtail, Giant [1, 19]: 100
Plant response rating, Foxtail, Giant [1, 20]: 100
Morningglory plant response rating [2, 13]: 100
Morningglory plant response rating [2, 14]: 100
Plant response rating, Morningglory ([2]; Preemergence, 125 g ai/ha, 0 to 100 scale (0 no effect, 100 complete control)): 80
Plant response rating, Morningglory ([2]; Preemergence, 500 g ai/ha, 0 to 100 scale, 0 is no effect, 100 is complete control): 80
Corn plant response rating (corn (Zea mays); [9]): 30
Corn plant response rating (corn (Zea mays); [10]): 40
Plant response rating, Corn (corn (Zea mays); [19]): 30
Plant response rating, Corn (corn (Zea mays); [20]): 50
Plant response rating, Sedge, Umbrella (0 to 100 scale, 0 is no effect, 100 is complete control) [3]: 90
Plant response rating, Ducksalad (0 to 100 scale, 0 is no effect, 100 is complete control) [4]: 40
Plant response rating, Ryegrass, Italian [5, 21]: 10
Plant response rating, Ryegrass, Italian [5, 22]: 20
Plant response rating, Ryegrass, Italian [5, 23]: 30
Plant response rating, Ryegrass, Italian [5, 24]: 35
Plant response rating, Ryegrass, Italian [5, 15]: 10
Plant response rating, Ryegrass, Italian [5, 16]: 60
Plant response rating, Ryegrass, Italian [5, 17]: 60
Plant response rating, Ryegrass, Italian [5, 18]: 80
Plant response rating, Johnsongrass [6, 21]: 15
Plant response rating, Johnsongrass [6, 22]: 15
Plant response rating, Johnsongrass [6, 23]: 25
Plant response rating, Johnsongrass [6, 24]: 40
Plant response rating, Johnsongrass [6, 15]: 15
Plant response rating, Johnsongrass [6, 16]: 55
Plant response rating, Johnsongrass [6, 17]: 95
Plant response rating, Johnsongrass [6, 18]: 98
Plant response rating, Kochia (kochia (Kochia scoparia); [21]): 75
Plant response rating, Kochia (kochia (Kochia scoparia); [22]): 95
Plant response rating, Kochia (kochia (Kochia scoparia); [23]): 95
Plant response rating, Kochia (kochia (Kochia scoparia); [24]): 98
Plant response rating, Kochia (kochia (Kochia scoparia); [15]): 45
Plant response rating, Kochia (kochia (Kochia scoparia); [16]): 95
Plant response rating, Kochia (kochia (Kochia scoparia); [17]): 95
Plant response rating, Kochia (kochia (Kochia scoparia); [18]): 98
Plant response rating, Ragweed [7, 21]: 40
Plant response rating, Ragweed [7, 22]: 55
Plant response rating, Ragweed [7, 23]: 90
Plant response rating, Ragweed [7, 24]: 95
Plant response rating, Ragweed [7, 15]: 15
Plant response rating, Ragweed [7, 16]: 35
Plant response rating, Ragweed [7, 17]: 50
Plant response rating, Ragweed [7, 18]: 75
Plant response rating, Soybean (soybean (Glycine max); [21]): 35
Plant response rating, Soybean (soybean (Glycine max); [22]): 40
Plant response rating, Soybean (soybean (Glycine max); [23]): 50
Plant response rating, Soybean (soybean (Glycine max); [24]): 55
Plant response rating, Soybean (soybean (Glycine max); [15]): 0
Plant response rating, Soybean (soybean (Glycine max); [16]): 5
Plant response rating, Soybean (soybean (Glycine max); [17]): 5
Plant response rating, Soybean (soybean (Glycine max); [18]): 15
Plant response rating, Chickweed ([8]; 31 g ai/ha, scale 0 to 100 (0 no effect, 100 complete control)): 40
Plant response rating, Chickweed ([8]; 62 g ai/ha, scale 0 to 100 (0 no effect, 100 complete control)): 98
Plant response rating, Chickweed ([8]; 125 g ai/ha, scale 0 to 100, 0 no effect, 100 complete control): 100
Plant response rating, Chickweed ([8]; 250 g ai/ha, scale 0 to 100): 100
